We go through three compounds from ChEMBL document CHEMBL1145679, “Perhydrogenation of tabersonine, ans Aspidiosperma indole alkaloid” (J Nat Prod, 1997).

Calls of active or inactive are those of the source. No cut-off for these calls is given here.

Assay [1] addresses D(2) dopamine receptor (Homo sapiens) (UniProt P14416). The assay is described as follows: Displacement of radioligand from dopamine D2 receptor by liquid scintillation spectrometry.
Assay [2] is described as follows: Displacement of radioligand from potassium channel by liquid scintillation spectrometry.
Assay [3] has as its target T1, Adrenergic receptor alpha-1 (Rattus norvegicus, UniProt P15823+P23944+P43140).
T1 sequence (P15823 whole entry): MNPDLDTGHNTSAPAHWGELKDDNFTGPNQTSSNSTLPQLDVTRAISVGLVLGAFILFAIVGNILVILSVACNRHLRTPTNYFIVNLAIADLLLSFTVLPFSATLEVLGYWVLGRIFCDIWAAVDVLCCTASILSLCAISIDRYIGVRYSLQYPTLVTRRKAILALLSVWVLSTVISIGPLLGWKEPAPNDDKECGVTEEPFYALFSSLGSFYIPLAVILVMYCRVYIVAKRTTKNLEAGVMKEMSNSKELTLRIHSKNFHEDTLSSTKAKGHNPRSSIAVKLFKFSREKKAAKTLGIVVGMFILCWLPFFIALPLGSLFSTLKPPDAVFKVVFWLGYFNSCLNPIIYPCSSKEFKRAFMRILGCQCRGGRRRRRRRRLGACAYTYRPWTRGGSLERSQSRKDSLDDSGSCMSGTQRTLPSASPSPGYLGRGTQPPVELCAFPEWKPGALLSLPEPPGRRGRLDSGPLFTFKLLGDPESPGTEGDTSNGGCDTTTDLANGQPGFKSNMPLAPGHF
T1 sequence (P23944 whole entry): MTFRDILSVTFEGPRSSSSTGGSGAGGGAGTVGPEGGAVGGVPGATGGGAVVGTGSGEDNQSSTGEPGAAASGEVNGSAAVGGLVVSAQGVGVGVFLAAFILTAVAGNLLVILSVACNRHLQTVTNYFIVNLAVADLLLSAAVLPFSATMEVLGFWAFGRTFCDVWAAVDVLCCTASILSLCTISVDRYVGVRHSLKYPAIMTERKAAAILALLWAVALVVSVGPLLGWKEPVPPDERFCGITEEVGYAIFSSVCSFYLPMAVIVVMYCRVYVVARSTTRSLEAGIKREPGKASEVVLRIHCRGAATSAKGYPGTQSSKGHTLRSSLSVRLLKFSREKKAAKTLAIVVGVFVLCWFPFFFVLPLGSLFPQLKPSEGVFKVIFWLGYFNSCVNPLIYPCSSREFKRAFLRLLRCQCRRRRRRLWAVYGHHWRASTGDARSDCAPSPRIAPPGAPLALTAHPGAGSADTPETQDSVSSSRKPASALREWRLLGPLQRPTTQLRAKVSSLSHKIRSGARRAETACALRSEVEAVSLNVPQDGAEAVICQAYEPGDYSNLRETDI
T1 sequence (P43140 whole entry): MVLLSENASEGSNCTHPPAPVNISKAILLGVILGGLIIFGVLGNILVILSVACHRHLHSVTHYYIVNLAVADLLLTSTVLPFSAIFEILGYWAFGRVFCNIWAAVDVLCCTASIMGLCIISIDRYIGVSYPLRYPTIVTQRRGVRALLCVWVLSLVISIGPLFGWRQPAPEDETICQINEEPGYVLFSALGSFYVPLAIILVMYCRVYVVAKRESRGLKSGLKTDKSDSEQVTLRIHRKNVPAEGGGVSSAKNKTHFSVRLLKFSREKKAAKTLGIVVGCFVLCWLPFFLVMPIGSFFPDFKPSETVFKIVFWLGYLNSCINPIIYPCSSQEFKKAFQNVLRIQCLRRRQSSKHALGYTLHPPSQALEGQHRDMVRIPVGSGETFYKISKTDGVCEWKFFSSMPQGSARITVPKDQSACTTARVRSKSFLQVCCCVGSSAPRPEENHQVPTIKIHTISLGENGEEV
The assay is described as follows: Displacement of radioligand from rat alpha1 adrenergic receptor by liquid scintillation spectrometry.

Assay [4] concerns the target T2, 5-hydroxytryptamine receptor 3A (Homo sapiens, UniProt P46098).
T2 sequence (P46098 whole entry): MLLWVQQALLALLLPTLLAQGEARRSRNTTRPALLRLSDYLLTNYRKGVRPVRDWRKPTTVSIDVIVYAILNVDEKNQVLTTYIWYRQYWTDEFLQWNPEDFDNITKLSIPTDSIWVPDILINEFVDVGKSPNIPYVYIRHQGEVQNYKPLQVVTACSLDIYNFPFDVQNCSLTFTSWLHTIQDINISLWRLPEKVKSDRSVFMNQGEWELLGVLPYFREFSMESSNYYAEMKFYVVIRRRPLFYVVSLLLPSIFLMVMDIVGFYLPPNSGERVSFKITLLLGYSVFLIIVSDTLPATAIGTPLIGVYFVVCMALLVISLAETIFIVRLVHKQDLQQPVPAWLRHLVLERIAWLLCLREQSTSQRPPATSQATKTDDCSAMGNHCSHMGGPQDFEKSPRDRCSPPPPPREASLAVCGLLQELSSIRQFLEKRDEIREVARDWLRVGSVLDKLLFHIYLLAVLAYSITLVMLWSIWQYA
Nature of the assay: Displacement of radioligand from 5HT3 receptor by liquid scintillation spectrometry.

Assay [5] can be described thus: Displacement of radioligand from AMPA receptor by liquid scintillation spectrometry.
Assay [6] addresses 5-hydroxytryptamine receptor 2A (Homo sapiens, UniProt P28223). The assay is described as follows: Displacement of radioligand from 5HT2 receptor by liquid scintillation spectrometry.
Assay [7] has as its target D(1A) dopamine receptor (Homo sapiens) (UniProt P21728). Nature of the assay: Displacement of radioligand from dopamine D1 receptor by liquid scintillation spectrometry.
Assay [8] can be described thus: Displacement of radioligand from glycine receptor by liquid scintillation spectrometry.
A short description of assay [9]: Displacement of radioligand from calcium channel by liquid scintillation spectrometry.
Assay [10] in a line: Displacement of radioligand from rat sodium channel batrachotoxin binding site by liquid scintillation spectrometry.
The target in assay [11] is T3, Glucocorticoid receptor (Homo sapiens) (UniProt P04150).
T3 sequence (whole entry): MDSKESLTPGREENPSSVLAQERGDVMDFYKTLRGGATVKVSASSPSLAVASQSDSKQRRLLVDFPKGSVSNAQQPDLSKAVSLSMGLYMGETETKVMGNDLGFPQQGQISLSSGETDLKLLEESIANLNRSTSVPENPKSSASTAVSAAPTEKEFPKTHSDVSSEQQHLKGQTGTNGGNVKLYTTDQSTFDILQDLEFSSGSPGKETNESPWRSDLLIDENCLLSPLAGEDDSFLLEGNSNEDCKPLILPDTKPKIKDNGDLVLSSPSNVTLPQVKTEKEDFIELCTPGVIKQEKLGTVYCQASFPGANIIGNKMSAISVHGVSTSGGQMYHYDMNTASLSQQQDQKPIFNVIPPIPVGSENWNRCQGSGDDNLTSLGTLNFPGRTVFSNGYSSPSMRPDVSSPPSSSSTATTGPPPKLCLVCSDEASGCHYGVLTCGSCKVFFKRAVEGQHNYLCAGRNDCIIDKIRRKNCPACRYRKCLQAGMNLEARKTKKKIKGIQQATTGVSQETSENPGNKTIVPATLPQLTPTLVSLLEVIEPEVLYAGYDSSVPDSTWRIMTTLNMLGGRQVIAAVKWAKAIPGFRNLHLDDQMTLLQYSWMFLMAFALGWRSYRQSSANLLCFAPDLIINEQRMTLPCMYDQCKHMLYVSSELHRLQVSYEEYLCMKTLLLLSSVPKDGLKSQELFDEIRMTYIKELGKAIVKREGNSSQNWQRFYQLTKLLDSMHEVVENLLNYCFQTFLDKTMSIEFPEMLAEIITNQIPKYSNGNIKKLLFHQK
The assay is described as follows: Displacement of radioligand from glucocorticoid receptor by liquid scintillation spectrometry.

Assay [12] deals with T4, Adrenergic receptor alpha-2 (Rattus norvegicus, UniProt P22086+P19328+P22909).
T4 sequence (P22086 whole entry): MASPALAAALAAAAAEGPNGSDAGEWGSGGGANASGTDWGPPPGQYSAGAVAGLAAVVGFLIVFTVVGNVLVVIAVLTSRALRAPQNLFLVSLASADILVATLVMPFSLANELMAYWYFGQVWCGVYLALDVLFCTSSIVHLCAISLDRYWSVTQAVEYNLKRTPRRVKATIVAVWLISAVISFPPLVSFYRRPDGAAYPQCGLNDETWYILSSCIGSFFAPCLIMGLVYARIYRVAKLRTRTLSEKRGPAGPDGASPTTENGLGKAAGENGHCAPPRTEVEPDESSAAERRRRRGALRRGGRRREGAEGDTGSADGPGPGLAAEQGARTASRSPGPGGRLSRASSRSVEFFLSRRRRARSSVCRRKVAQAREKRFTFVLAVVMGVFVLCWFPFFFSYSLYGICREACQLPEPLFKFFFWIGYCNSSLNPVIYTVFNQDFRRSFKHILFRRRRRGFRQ
T4 sequence (P19328 whole entry): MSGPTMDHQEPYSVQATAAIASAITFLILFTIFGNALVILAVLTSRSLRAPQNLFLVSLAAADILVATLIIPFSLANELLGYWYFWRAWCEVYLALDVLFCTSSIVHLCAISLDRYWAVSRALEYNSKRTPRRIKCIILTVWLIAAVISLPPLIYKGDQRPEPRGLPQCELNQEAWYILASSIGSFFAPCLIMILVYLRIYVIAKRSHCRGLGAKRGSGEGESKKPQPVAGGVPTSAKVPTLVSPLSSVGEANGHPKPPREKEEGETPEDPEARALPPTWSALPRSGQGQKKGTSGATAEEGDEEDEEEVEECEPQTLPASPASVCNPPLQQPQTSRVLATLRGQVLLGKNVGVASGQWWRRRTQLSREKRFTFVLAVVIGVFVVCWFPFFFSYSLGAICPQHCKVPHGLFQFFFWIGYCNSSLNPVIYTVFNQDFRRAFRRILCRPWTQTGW
T4 sequence (P22909 whole entry): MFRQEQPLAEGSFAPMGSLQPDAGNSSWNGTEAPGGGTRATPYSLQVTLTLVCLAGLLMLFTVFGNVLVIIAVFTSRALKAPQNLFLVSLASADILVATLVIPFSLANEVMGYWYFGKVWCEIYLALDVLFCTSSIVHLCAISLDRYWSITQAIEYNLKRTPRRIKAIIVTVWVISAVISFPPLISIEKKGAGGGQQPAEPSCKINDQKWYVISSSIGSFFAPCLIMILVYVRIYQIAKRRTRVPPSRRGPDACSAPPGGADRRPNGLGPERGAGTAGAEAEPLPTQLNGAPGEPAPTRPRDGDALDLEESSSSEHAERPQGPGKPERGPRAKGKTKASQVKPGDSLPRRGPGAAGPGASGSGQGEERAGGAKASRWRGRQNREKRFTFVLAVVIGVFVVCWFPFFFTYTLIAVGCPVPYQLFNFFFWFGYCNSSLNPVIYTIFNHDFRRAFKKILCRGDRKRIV
The assay is described as follows: Displacement of radioligand from rat alpha2 adrenergic receptor by liquid scintillation spectrometry.

The nature of assay [13]: Displacement of radioligand from muscarinic receptor by liquid scintillation spectrometry.
The nature of assay [14]: Displacement of radioligand from GABAB receptor by liquid scintillation spectrometry.
For assay [15], the target named is T5, 5-hydroxytryptamine receptor 1A (Homo sapiens, UniProt P08908).
T5 sequence (P08908 whole entry): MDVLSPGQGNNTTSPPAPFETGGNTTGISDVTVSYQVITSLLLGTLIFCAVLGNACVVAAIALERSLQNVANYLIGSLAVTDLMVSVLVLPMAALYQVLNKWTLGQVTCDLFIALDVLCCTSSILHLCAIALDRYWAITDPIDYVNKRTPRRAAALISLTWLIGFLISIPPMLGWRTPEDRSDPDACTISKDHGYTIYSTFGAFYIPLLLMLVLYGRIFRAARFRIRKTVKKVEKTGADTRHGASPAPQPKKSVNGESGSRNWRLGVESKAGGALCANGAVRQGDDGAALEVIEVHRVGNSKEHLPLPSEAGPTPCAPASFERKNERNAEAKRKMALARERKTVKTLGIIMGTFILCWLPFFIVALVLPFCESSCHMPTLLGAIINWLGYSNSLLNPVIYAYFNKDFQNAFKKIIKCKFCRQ
Nature of the assay: Displacement of radioligand from 5HT1A receptor by liquid scintillation spectrometry.

Assay [16] is described as follows: Displacement of radioligand from GABAA receptor by liquid scintillation spectrometry.
The nature of assay [17]: Displacement of radioligand from NMDA receptor by liquid scintillation spectrometry.

Sequence of 5-hydroxytryptamine receptor 2A (P28223 whole entry): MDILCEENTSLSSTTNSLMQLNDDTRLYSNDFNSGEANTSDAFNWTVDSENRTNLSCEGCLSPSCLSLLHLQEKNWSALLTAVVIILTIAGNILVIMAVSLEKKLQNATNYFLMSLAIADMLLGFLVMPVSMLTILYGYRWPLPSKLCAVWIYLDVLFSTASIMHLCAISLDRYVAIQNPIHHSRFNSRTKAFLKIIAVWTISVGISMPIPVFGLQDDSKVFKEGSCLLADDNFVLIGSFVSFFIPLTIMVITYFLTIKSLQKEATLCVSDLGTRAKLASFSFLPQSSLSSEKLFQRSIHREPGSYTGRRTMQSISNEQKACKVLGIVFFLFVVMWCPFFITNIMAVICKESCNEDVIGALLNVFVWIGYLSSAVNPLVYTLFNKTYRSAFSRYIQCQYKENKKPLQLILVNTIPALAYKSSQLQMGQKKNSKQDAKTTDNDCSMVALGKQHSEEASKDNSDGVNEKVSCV
Sequence of D(2) dopamine receptor (Homo sapiens) (P14416 whole entry): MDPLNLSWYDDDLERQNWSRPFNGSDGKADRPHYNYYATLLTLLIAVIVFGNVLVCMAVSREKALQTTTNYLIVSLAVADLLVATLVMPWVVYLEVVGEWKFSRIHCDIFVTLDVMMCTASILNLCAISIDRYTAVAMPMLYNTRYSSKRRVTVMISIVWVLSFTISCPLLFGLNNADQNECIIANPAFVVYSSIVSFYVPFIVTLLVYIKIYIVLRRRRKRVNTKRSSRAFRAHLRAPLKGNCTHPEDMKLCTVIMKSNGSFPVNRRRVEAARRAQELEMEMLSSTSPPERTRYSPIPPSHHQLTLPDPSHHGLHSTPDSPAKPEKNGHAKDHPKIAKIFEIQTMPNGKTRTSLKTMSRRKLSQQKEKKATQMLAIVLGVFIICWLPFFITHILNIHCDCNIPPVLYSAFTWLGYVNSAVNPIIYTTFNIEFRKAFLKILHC
Sequence of D(1A) dopamine receptor (Homo sapiens) (P21728 whole entry): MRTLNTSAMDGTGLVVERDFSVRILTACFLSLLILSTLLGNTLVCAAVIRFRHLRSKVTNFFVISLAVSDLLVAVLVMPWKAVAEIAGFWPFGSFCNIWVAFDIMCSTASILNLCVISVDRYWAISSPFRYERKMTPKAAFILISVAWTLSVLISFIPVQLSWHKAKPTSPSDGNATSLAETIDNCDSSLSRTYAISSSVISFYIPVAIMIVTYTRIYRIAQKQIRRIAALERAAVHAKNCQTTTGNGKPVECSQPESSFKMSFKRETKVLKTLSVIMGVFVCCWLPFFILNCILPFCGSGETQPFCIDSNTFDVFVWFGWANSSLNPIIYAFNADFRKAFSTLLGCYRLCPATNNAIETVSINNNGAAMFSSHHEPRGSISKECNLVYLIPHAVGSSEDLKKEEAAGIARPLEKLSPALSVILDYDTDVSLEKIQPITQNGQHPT

For `CC[C@]12CCCN3CC[C@@]4([C@H]5CCCC[C@H]5N[C@H]4[C@@H](C(=O)[O-])C1)[C@@H]32.[Na+]`, the result in assay [1], in [2], in assay [5], in assay [7], in assay [8] and in assay [9] was inactive. In addition, the result in [11], in assay [13], in assay [14], in assay [16] and in [17] was inactive. Also, the Ki (usually a measure of affinity in units of concentration, obtained from inhibition or displacement) is above 100 µM in assay [3], above 10 µM in [10] and above 100 µM in [12]. The IC50 (in general, the concentration at which inhibition is half-maximal) is above 100 µM in [4], above 10 µM in assay [6] and above 10 µM in assay [15].
In [10], `COc1ccc(C(=O)O[C@H]2CC[C@@]3(C)[C@@H]4CC[C@H]5[C@]6(O)C[C@H](O)[C@@]7(O)[C@@H](CN8C[C@@H](C)CC[C@H]8[C@@]7(C)O)[C@]6(O)C[C@@]53O[C@]24O)cc1OC` [VERATRIDINE] registered an inhibitory constant (Ki) of 2.1 µM.
Turning to `CC[C@]12CCCN3CC[C@@]4([C@H]5CCCC[C@H]5N[C@H]4[C@@H](C(=O)OC)C1)[C@@H]32.Cl.Cl`, the outcome in assay [1], in [2], in assay [5], in assay [7], in [8] and in assay [9] was inactive. In addition, the outcome in [11], in assay [13], in [14], in [16] and in assay [17] was inactive. In addition, the Ki in assay [3] is above 100 µM; in assay [10], 3.7 µM; in [12], above 100 µM. Moreover, the IC50 in assay [4] is above 100 µM; in assay [6], above 10 µM; in [15], above 10 µM.
